In one assay the target is T1, Cyclin E/CDK2 (Homo sapiens, UniProt P24941).
T1 construct: made in house; host or cells: SF9 insect cells, baculovirus co-infection
In words: CDK2 assay (Cyclin E/CDK2 in vitro kinase SPA assay, biotinylated Histone H1 peptide). To be noted: read-out: CDK2 IC 50. The class given is biochemical.

Another assay has as its target T2, His-CHK1 (Homo sapiens, UniProt O14757).
T2 sequence (O14757 1-265 limits assumed): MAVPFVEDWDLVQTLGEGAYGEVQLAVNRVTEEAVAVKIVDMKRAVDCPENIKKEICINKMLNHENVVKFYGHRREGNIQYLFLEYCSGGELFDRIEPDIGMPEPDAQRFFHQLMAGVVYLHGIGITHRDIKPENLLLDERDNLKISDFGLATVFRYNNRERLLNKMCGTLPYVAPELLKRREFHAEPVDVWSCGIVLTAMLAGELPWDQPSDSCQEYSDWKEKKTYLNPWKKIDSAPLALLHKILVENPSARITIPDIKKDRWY
In words: CHK1 SPA assay (recombinant His-CHK1, biotinylated CDC25C peptide, 33P-ATP).

`Cn1cc(-c2cnc3c(Nc4ccns4)nc(CCN)cn23)cn1`: the IC50 at Cyclin E/CDK2 stood at 0.55 µM; at His-CHK1 it was 0.017 µM. `CCN(CC)S(=O)(=O)c1sc(Nc2nc(C3=CCCNC3)cn3c(-c4cnn(C)c4)cnc23)cc1C`: the IC50 on Cyclin E/CDK2 stood at 8.28 µM. The same measure, in the same setting: with `Cc1cc(Nc2nc(C3=CCCNC3)cn3c(-c4cnn(C)c4)cnc23)sc1S(=O)(=O)N1CCOCC1` the figure was 6.95 µM.
